Like-named read-outs stand apart in the source and are kept apart here.
Experiments:
[1] = test system: TCF/LEF luciferase Reporter in DLD1 cells; assay: TCF reporter assay (DLD1 TCF/LEF luciferase reporter, Bright-Glo); type: cell-based
Method in brief: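 Readouts: Bright-Glo luciferase for reporter signal and CellTiter-Glo for cell viability, with absolute IC50 derived. The reporter clone came from lentiviral TCF/LEF-luciferase transduction of DLD1 cells, seeded 5000 cells/well in RPMI with 4% FBS and exposed overnight to serially diluted compounds.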

[2] = target: T1, beta-catenin/TCF4 engagement (Homo sapiens, UniProt P35222); assay: Nano-BRET target engagement assay (B-cat-Halo & TCF4-Luc in HEK293 cells); type: cell-based; conditions: read-out: NanoBRET Abs IC50
T1 construct: expressed in transfected cells; host or cells: HEK293
T1 sequence (P35222 1-781): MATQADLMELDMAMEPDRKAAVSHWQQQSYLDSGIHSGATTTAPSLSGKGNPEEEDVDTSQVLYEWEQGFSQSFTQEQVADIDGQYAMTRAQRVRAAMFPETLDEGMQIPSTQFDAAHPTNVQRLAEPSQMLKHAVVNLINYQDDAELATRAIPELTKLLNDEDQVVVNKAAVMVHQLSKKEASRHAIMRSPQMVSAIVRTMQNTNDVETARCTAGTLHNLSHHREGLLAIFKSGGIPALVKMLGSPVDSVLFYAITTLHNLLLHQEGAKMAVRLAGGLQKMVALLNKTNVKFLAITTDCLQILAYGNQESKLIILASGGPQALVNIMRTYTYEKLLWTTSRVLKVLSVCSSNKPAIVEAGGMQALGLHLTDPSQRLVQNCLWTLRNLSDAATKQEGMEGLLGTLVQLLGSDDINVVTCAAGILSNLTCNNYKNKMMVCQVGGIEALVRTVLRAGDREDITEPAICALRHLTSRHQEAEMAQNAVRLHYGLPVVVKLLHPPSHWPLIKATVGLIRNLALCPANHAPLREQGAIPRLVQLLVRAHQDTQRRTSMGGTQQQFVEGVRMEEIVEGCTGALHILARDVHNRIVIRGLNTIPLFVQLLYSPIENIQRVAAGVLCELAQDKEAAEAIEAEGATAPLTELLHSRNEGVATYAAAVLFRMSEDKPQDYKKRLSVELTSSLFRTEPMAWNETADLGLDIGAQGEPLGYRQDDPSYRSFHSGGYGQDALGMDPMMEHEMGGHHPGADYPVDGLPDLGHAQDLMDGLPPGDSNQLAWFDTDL

[3] = target: T2, full-length beta-Catenin (Uniprot ID P35222) (Homo sapiens, UniProt P35222); assay: Fluorescence polarization IC50 (beta-catenin / 5FAM-TCF4 10-53 competition); type: binding; conditions: read-out: beta-Catenin FP IC50
T2 construct: 10 nM full-length beta-Catenin (Uniprot ID P35222)
T2 sequence (P35222 1-781): T1 sequence (P35222 1-781)

[4] = read-out: DLD1 4% Abs IC50, DLD1 reporter assay, 4%, absolute IC50
[5] = read-out: DLD1 4% Abs IC50, DLD1 reporter, 4%, absolute IC50
[6] = absolute IC50, read-out: DLD1 reporter assay Abs IC50

Row | SMILES | IC50 [1, 4] [nM] | IC50 ([2]; absolute IC50) [nM] | IC50 ([3]; fluorescence polarization) [nM] | IC50 [1, 5] [nM] | IC50 [1, 6] [nM] | IC50 [3] [nM] | IC50 ([1]; read-out: DLD1 4% Abs IC50, DLD1 4%) [nM] | IC50 [2] [nM]
1 | CC(=O)N1CCC[C@]12CC=CCCCC1(CCCC=CCCCOC(=O)N3CC[C@@](C(=O)N[C@@H](Cc4ccsc4)C(=O)N[C@@H](Cc4csc5ccccc45)C(=O)N[C@@H](CO)C(N)=O)(C3)NC(=O)[C@H](CC(C)C)NC(=O)[C@H](Cc3ccccc3)NC(=O)[C@H](C)NC(=O)[C@H](C)NC(=O)[C@H](Cc3ccccc3C(=O)O)NC(=O)[C@H](CC(=O)O)NC1=O)NC(=O)[C@H](CC(C)(C)C)NC(=O)[C@H](CC(=O)O)NC2=O (single isomer, unassigned) [I-1667, Ac-PL3-Asp-Npg-B5-Asp-2COOHF-Ala-Ala-Phe-Leu-PyrS2-3Thi-BztA-Ser-NH2] | 1300 | 5600 | 13 | – | – | – | – | –
2 | CC(=O)N1CCC[C@]12CC=CCCCC1(CCCC=CCCCOC(=O)N3CC[C@@](C(=O)N[C@@H](Cc4ccsc4)C(=O)N[C@@H](Cc4csc5ccccc45)C(=O)N[C@@H](CCC(N)=O)C(N)=O)(C3)NC(=O)[C@H](CC(C)C)NC(=O)[C@H](Cc3ccccc3)NC(=O)[C@H](C)NC(=O)[C@H](C)NC(=O)[C@H](CN(CC(=O)O)CC(F)(F)F)NC(=O)[C@H](CC(=O)O)NC1=O)NC(=O)[C@H](CC(C)(C)C)NC(=O)[C@H](CC(=O)O)NC2=O (stereo partly drawn) [I-1461, Ac-PL3-Asp-Npg-B5-Asp-TfeGA-Ala-Ala-Phe-Leu-PyrS2-3Thi-BztA-Gln-NH2] | – | 3700 | 10 | 1700 | – | – | – | –
3 | CC(=O)N1CCC[C@]12CC=CCCCC1(CCCC=CCCCOC(=O)N3CC[C@@](C(=O)N[C@@H](Cc4ccccc4)C(=O)N[C@@H](Cc4csc5ccccc45)C(=O)N[C@@H](CC(=O)N4CCOCC4)C(N)=O)(C3)NC(=O)[C@H](CC(C)C)NC(=O)[C@H](Cc3ccccc3)NC(=O)[C@H](C)NC(=O)[C@H](CCCCNC(C)C)NC(=O)[C@H](CCC(N)=O)NC(=O)[C@H](CC(=O)O)NC1=O)NC(=O)[C@H](CC1CCCCC1)NC(=O)[C@H](CC(N)=O)NC2=O (stereo partly drawn) [I-2426, Ac-PL3-Asn-Cha-B5-Asp-Gln-iPrLys-Ala-Phe-Leu-PyrS2-Phe-BztA-MorphAsn-NH2] | – | > 20000 | 46 | > 20000 | – | – | – | –
4 | CC(=O)N1CCC[C@]12CC=CCCCC1(CCCC=CCCCOC(=O)N3CC[C@@](C(=O)N[C@@H](Cc4ccccc4Cl)C(=O)N[C@@H](Cc4csc5ccccc45)C(=O)N[C@H](CO)[C@@H](C)O)(C3)NC(=O)[C@H]([C@@H](C)O)NC(=O)[C@H](Cc3ccccc3)NC(=O)[C@H](C)NC(=O)[C@H](C)NC(=O)[C@H](CN(CC(=O)O)CC(F)(F)F)NC(=O)[C@H](CC(=O)O)NC1=O)NC(=O)[C@H](CC(C)(C)C)NC(=O)[C@H](CC(=O)O)NC2=O (stereo partly drawn) [I-1241, Ac-PL3-Asp-Npg-B5-Asp-TfeGA-Ala-Ala-Phe-Thr-PyrS2-2C1F-BztA-Thro1] | – | 15700 | 19 | – | 3800 | – | – | –
5 | CC(=O)N1CCC[C@]12CC=CCCCC1(CCCC=CCCCOC(=O)N3CC[C@@](C(=O)N[C@@H](Cc4ccccc4C(F)(F)F)C(=O)N[C@@H](Cc4csc5ccccc45)C(=O)N[C@@H](CCCCNC(C)C)C(N)=O)(C3)NC(=O)[C@H](CC(C)C)NC(=O)[C@H](Cc3ccccc3)NC(=O)[C@H](C)NC(=O)[C@H](C)NC(=O)[C@H](Cc3cccc(C(=O)O)c3)NC(=O)[C@H](CC(=O)O)NC1=O)NC(=O)[C@H](CC(C)(C)C)NC(=O)[C@H](CC(=O)O)NC2=O (stereo partly drawn) [I-1616, Ac-PL3-Asp-Npg-B5-Asp-3COOHF-Ala-Ala-Phe-Leu-PyrS2-2F3MeF-BztA-iPrLys-NH2] | 2800 | 4500 | 13 | – | – | – | – | –
6 | CC(=O)N1CCC[C@]12CC=CCCCC1(CCCC=CCCCOC(=O)N3CC[C@@](C(=O)N[C@@H](Cc4ccsc4)C(=O)N[C@@H](Cc4csc5ccccc45)C(=O)N[C@@H](C)C(N)=O)(C3)NC(=O)[C@H](CC(C)C)NC(=O)[C@H](Cc3ccccc3)NC(=O)[C@H](C)NC(=O)[C@H](C)NC(=O)[C@H](CN(CC(=O)O)CC(F)(F)F)NC(=O)[C@H](CC(=O)O)NC1=O)NC(=O)[C@H](CC(C)(C)C)NC(=O)[C@H](CC(=O)O)NC2=O (stereo partly drawn) [I-1710, Ac-PL3-Asp-Npg-B5-Asp-TfeGA-Ala-Ala-Phe-Leu-PyrS2-3Thi-BztA-Ala-NH2] | 1900 | 3900 | 22 | – | – | – | – | –
7 | CC(=O)N1CCC[C@]12CC=CCCCC1(CCCC=CCCCOC(=O)N3CC[C@@](C(=O)N[C@@H](Cc4ccccc4C(F)(F)F)C(=O)N[C@@H](Cc4csc5ccccc45)C(=O)N[C@@H](CCC(N)=O)C(=O)N[C@@H](CC(C)C)C(=O)N[C@@H](CCCNC(=N)N)C(N)=O)(C3)NC(=O)[C@H](CC(C)C)NC(=O)[C@H](Cc3ccccc3)NC(=O)[C@H](C)NC(=O)[C@H](C)NC(=O)[C@H](Cc3cccc(C(=O)O)c3)NC(=O)[C@H](CC(=O)O)NC1=O)NC(=O)[C@H](CC(C)(C)C)NC(=O)[C@H](CC(=O)O)NC2=O (stereo partly drawn) [I-2393, Ac-PL3-Asp-Npg-B5-Asp-3COOHF-Ala-Ala-Phe-Leu-PyrS2-2F3MeF-BztA-Gln-Leu-Arg-NH2] | – | > 20000 | 61 | 5600 | – | – | – | –
8 | CC(=O)N1CCC[C@]12CC=CCCCC1(CCCC=CCCCOC(=O)N3CC[C@@](C(=O)N[C@@H](Cc4ccccc4C(F)(F)F)C(=O)N[C@@H](Cc4csc5ccccc45)C(=O)N[C@@H](CCC(N)=O)C(=O)N[C@@H](CC(C)C)C(=O)N[C@H](CCC(N)=O)C(N)=O)(C3)NC(=O)[C@H](CC(C)C)NC(=O)[C@H](Cc3ccccc3)NC(=O)[C@H](C)NC(=O)[C@H](C)NC(=O)[C@H](Cc3cccc(C(=O)O)c3)NC(=O)[C@H](CC(=O)O)NC1=O)NC(=O)[C@H](CC(C)(C)C)NC(=O)[C@H](CC(=O)O)NC2=O (stereo partly drawn) [I-2398, Ac-PL3-Asp-Npg-B5-Asp-3COOHF-Ala-Ala-Phe-Leu-PyrS2-2F3MeF-BztA-Gln-Leu-dGln-NH2] | – | 3600 | 28 | 1300 | – | – | – | –

Results, then the compound that gave them:

Row | IC50 [1, 4] [nM] | IC50 ([2]; absolute IC50) [nM] | IC50 ([3]; fluorescence polarization) [nM] | IC50 [1, 5] [nM] | IC50 [1, 6] [nM] | IC50 [3] [nM] | IC50 ([1]; read-out: DLD1 4% Abs IC50, DLD1 4%) [nM] | IC50 [2] [nM] | SMILES
9 | – | 23600 | – | – | > 20000 | 5 | – | – | CC(=O)N1CCC[C@]12CC=CCCCC1(CCCC=CCCCOC(=O)N3CC[C@@](C(=O)N[C@@H](Cc4ccsc4)C(=O)N[C@@H](Cc4csc5ccccc45)C(=O)N[C@@H](CCC(N)=O)C(=O)O)(C3)NC(=O)[C@H](CC(N)=O)NC(=O)[C@H](Cc3ccccc3)NC(=O)[C@H](C)NC(=O)[C@H](C)NC(=O)[C@H](CC(=O)O)NC(=O)[C@H](CC(=O)O)NC1=O)NC(=O)[C@H](CC(C)(C)C)NC(=O)[C@H](CC(=O)O)NC2=O (stereo partly drawn) [I-1025, Ac-PL3-Asp-Npg-B5-Asp-Asp-Ala-Ala-Phe-Asn-PyrS2-3Thi-BztA-Gln-OH]
10 | – | – | 5 | – | – | – | 6500 | 4000 | CC(=O)N1CCC[C@]12CC=CCCCC1(CCCC=CCCCOC(=O)N3CC[C@@](C(=O)N[C@@H](Cc4ccsc4)C(=O)N[C@@H](Cc4csc5ccccc45)C(=O)N[C@@H](C)C(N)=O)(C3)NC(=O)[C@H](CC(C)C)NC(=O)[C@H](Cc3ccccc3)NC(=O)[C@H](C)NC(=O)[C@H](CCC(N)=O)NC(=O)[C@H](Cc3cccc(C(=O)O)c3)NC(=O)[C@H](CC(=O)O)NC1=O)NC(=O)[C@H](CC(C)(C)C)NC(=O)[C@H](CC(=O)O)NC2=O (stereo partly drawn) [I-1918, Ac-PL3-Asp-Npg-B5-Asp-3COOHF-Gln-Ala-Phe-Leu-PyrS2-3Thi-BztA-Ala-NH2]
11 | 1300 | 3500 | 23 | – | – | – | – | – | CCCC[C@@H]1NC(=O)[C@H](Cc2cccc(C(=O)O)c2)NC(=O)[C@H](CC(=O)O)NC(=O)C2(CCCC=CCCCOC(=O)N3CC[C@@](C(=O)N[C@@H](Cc4ccccc4Cl)C(=O)N[C@@H](Cc4csc5ccccc45)C(=O)N[C@@H](CCC(N)=O)C(N)=O)(C3)NC(=O)[C@H](CC(C)C)NC(=O)[C@H](Cc3ccccc3)NC(=O)[C@H](C)NC1=O)CCCC=CC[C@]1(CCCN1C(C)=O)C(=O)N[C@@H](CC(=O)O)C(=O)N[C@@H](CC(C)(C)C)C(=O)N2 (stereo partly drawn) [I-1685, Ac-PL3-Asp-Npg-B5-Asp-3COOHF-nLeu-Ala-Phe-Leu-PyrS2-2C1F-BztA-Gln-NH2]
12 | – | 5700 | 133 | 1200 | – | – | – | – | CC(=O)N1CCC[C@]12CC=CCCCC1(CCCC=CCCCOC(=O)N3CC[C@@](C(=O)N[C@@H](Cc4ccccc4C(F)(F)F)C(=O)N[C@@H](Cc4csc5ccccc45)C(=O)N[C@@H](CCC(N)=O)C(=O)N[C@@H](CC(C)C)C(=O)NC4(C(N)=O)CCC4)(C3)NC(=O)[C@H](CC(C)C)NC(=O)[C@H](Cc3ccccc3)NC(=O)[C@H](C)NC(=O)[C@H](C)NC(=O)[C@H](Cc3cccc(C(=O)O)c3)NC(=O)[C@H](CC(=O)O)NC1=O)NC(=O)[C@H](CC(C)(C)C)NC(=O)[C@H](CC(=O)O)NC2=O (stereo partly drawn) [I-2388, Ac-PL3-Asp-Npg-B5-Asp-3COOHF-Ala-Ala-Phe-Leu-PyrS2-2F3MeF-BztA-Gln-Leu-Cbg-NH2]

— patent US20240116985A1, “STAPLED PEPTIDES AND METHODS THEREOF” (priority 2020, published 2024)
